Where a name gives a salt, the structure may show the parent alone. Each block holds one compound with its values, some of them ahead of it.
Columns and labels:
[1] = cited from earlier work
[2] = Stability of the crystalline form under aqueous conditions (conversion to neutral form, checked by PXRD); assay type: physicochemical
From the text: All powder x-ray diffraction patterns were obtained using the D/Max Rapid X-ray Diffractometer (D/Max Rapid, Contact Rigaku/MSC, 9009 New Trails Drive, The Woodlands, Tex., USA 77381-5209) equipped with a copper source (Cu/Kα1.5406 angstroms), manual x-y stage, and 0.3 mm collimator. The sample was loaded into a 0.3 mm boron rich glass capillary tube (e.g., Charles Supper Company, 15 Tech Circle, Natick, Mass. 01760-1024) by sectioning off one end of the tube and tapping the open, sectioned end into a bed of the powdered sample or into the sediment of a slurried precipitate. Note, precipitate can be amorphous or crystalline. The loaded capillary was mounted in a holder that was secured into the x-y stage. A diffractogram was acquired (e.g., Control software: RINT Rapid Control Software, Rigaku Rapid/XRD, version 1.0.0, © 1999 Rigaku Co.) under ambient conditions at a power setting of 46 kV at 40 mA in reflection mode, while oscillating about the omega-axis from 0-5 degrees at 1 degree/s and spinning about the phi-axis at 2 degrees/s. The exposure time was 15 minutes unless otherwise specified. […]

[3] = commercially available form (ACCOLATE), neutral molecule; cited from earlier work

Compound: COc1cc(C(=O)NS(=O)(=O)c2ccccc2C)ccc1Cc1cn(C)c2ccc(NC(=O)OC3CCCC3)cc12 [Amorphous neutral zafirlukast]
conversion of form in the presence of water [1]: convert to a monohydrate form

PXRD diffractogram after exposure to aqueous conditions ([2]; after exposure to neutral or acidic aqueous conditions): remains unchanged
Compound: COc1cc(C(=O)NS(=O)(=O)c2ccccc2C)ccc1Cc1cn(C)c2ccc(NC(=O)OC3CCCC3)cc12 [potassium salt of zafirlukast]
conversion back to the neutral form under aqueous conditions ([2]; aqueous conditions, either neutral or acidic): does not convert back to the neutral form

Compound: COc1cc(C(=O)NS(=O)(=O)c2ccccc2C)ccc1Cc1cn(C)c2ccc(NC(=O)OC3CCCC3)cc12 [zafirlukast, 4-(5-cyclopentyloxy-carbonylamino-1-methyl-indol-3-ylmethyl)-3-methoxy-N-o-tolylsulfonylbenzamide]
solubility in water [3]: essentially insoluble in water

From patent publication US20050113410A1, “Pharmaceutical salts of zafirlukast” (priority 2003, published 2005)
